A short description of data set [1]: Acceleration test (40° C./75% relative humidity), synthetic tocopherol vs co-crystal, total tocopherol content. The class given is physicochemical. How it is done:
The content was determined by HPLC, the content was calculated by the external standard method, and the content is calculated based on the total tocopherol content. Both the initial tocopherol contents in the synthetic tocopherol itself and in the co-crystals were set at 100%.

Data set [2] can be described thus: Accelerated test stability (40° C./75% relative humidity), D-α-tocopherol vs co-crystal. The class given is physicochemical. How it is done: (§1) The content was determined by HPLC, and the content was calculated by the external standard method.
Data set [3] in a line: Strong light irradiation test (5500 Lux), content by HPLC and appearance. The class given is physicochemical. The conditions noted are these: 25° C. How it is done:
as §1

A short description of data set [4]: Long-term test stability (25° C./60% relative humidity). The class given is physicochemical. The conditions noted are these: Month 0, initial content set at 100%. How it is done: as §1
A short description of data set [5]: High temperature test (60° C.), content by HPLC and appearance. It counts as physicochemical. How it is done: as §1
The conditions of data set [6]: 200 g lean beef, 69 mg co-crystal or same equivalent, stored at 2-4° C. for 8 days.
Procedure: A. the lean beef was cut into pieces with a size of about 2×2 cm, 200 grams for each.
All samples were placed in a metal dish, numbered and stored at 2-4° C. for 8 days.

3 compounds from patent publication US20200331855A1, “CO-CRYSTAL OF TOCOPHEROL AND PROLINE AND PREPARATION METHOD THEREOF” (priority 2017, published 2020) can be followed below.

For `Cc1c(C)c2c(c(C)c1O)CCC(C)(CCCC(C)CCCC(C)CCCC(C)C)O2` (racemic) [synthetic tocopherol, DL-α-tocopherol], the content in data set [1] (Month 0, initial set at 100%) stood at 100.0%; in data set [1] (Month 1), 94.1%.

`Cc1c(C)c2c(c(C)c1O)CC[C@@](C)(CCC[C@H](C)CCC[C@H](C)CCCC(C)C)O2` [D-α-tocopherol]: the content was 100% in data set [2] (Month 0, initial content set at 100%); 98.0% in data set [2] (Month 1); 99.1% in data set [2] (Month 2); 100% in data set [3] (near UV 90 μW/cm^2, Day 0, initial content set at 100%); 97.8% in data set [3] (near UV 90 μW/cm^2, Day 5); 91.8% in data set [3] (near UV 90 μW/cm^2, Day 10). Also, the content in data set [3] (near UV 90 μW/cm^2, Day 20) was determined as 88.5%; in data set [4] it was 100.0%; in data set [5] (Day 0, HPLC, initial content set at 100%) it was 100%; in data set [5] (Day 5, % of initial content), 96.7%; in data set [5] (Day 10, % of initial content) it was 89.4%; in data set [5] (Day 20, % of initial content) it was 78.7%. Moreover, in data set [5] (Day 30, % of initial content), the content is 77.3%.

For the compound “co-crystal of D-α-tocopherol and L-proline”, in data set [6], the “flavor (rancidity) of beef” value is “except for the sample added with the co-crystal of D-α-tocopherol and L-proline, both of the other two samples have rancidity”; the “meat color of beef” value is “can delay the darkening and greening of beef”.
